From PubChem BioAssay (NCI)
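A five-concentration, 48-hour dose response in 96-well plates underlies each endpoint, interpolated linearly between surrounding concentrations. GI50: concentration for 50% inhibition of growth. Definition used: TGI = concentration required for complete inhibition of growth.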

Columns and labels:
Assay in all cases: inhibition of tumour cell growth, NCI panel, 48 h
[1] = test system: 786-0 renal
[2] = test system: A498 renal
[3] = test system: A549 NSCLC
[4] = test system: ACHN renal
[5] = test system: BT-549 breast
[6] = test system: CAKI-1 renal
[7] = test system: CCRF-CEM leukemia
[8] = test system: COLO 205 colon
[9] = test system: DU-145 prostate
[10] = test system: EKVX NSCLC
[11] = test system: HCC-2998 colon
[12] = test system: HCT-116 colon
[13] = test system: HCT-15 colon
[14] = test system: HL-60(TB) leukemia
[15] = test system: HOP-62 NSCLC
[16] = test system: HS 578T breast
[17] = test system: HT29 colon
[18] = test system: IGROV1 ovarian
[19] = test system: K-562 leukemia
[20] = test system: KM12 colon
[21] = test system: LOX IMVI melanoma
[22] = test system: M14 melanoma
[23] = test system: MALME-3M melanoma
[24] = test system: MCF7 breast
[25] = test system: MDA-MB-231 breast
[26] = test system: MDA-MB-435
[27] = test system: MOLT-4 leukemia
[28] = test system: NCI-H226 lung
[29] = test system: NCI-H23 lung
[30] = test system: NCI-H460 lung
[31] = test system: NCI-H522 lung
[32] = test system: NCI/ADR-RES ovarian
[33] = test system: OVCAR-3 ovarian
[34] = test system: OVCAR-4 ovarian
[35] = test system: OVCAR-5 ovarian
[36] = test system: OVCAR-8 ovarian
[37] = test system: PC-3 prostate
[38] = test system: RPMI-8226 leukemia
[39] = test system: RXF 393 renal
[40] = test system: SF-268 CNS
[41] = test system: SF-295 CNS
[42] = test system: SF-539 CNS
[43] = test system: SK-MEL-2 melanoma
[44] = test system: SK-MEL-28 melanoma
[45] = test system: SK-MEL-5 melanoma
[46] = test system: SK-OV-3 ovarian
[47] = test system: SN12C renal
[48] = test system: SNB-19 CNS
[49] = test system: SNB-75 CNS
[50] = test system: SR leukemia
[51] = test system: SW-620 colon
[52] = test system: TK-10 renal
[53] = test system: U251 CNS
[54] = test system: UACC-257 melanoma
[55] = test system: UACC-62 melanoma
[56] = test system: UO-31 renal

**Q.** `Cc1nc(NS(=O)(=O)c2ccc(NCN3C(=O)c4ccccc4C3=O)cc2)oc1C` was tested. Which GI50 [1] did it give?
**A.** > 100 µM

**Q.** And the TGI [1]?
**A.** > 100 µM

**Q.** And the GI50 [2]?
**A.** > 100 µM

**Q.** And the TGI [2]?
**A.** > 100 µM

**Q.** What about the GI50 [3] of the same molecule?
**A.** > 100 µM

**Q.** What about the TGI [3] of the same molecule?
**A.** > 100 µM

**Q.** What about the GI50 [4] of the same molecule?
**A.** > 100 µM

**Q.** And the TGI [4]?
**A.** > 100 µM

**Q.** What about the GI50 [5] of the same molecule?
**A.** > 100 µM

**Q.** And the TGI [5]?
**A.** > 100 µM

**Q.** What about the GI50 [6] of the same molecule?
**A.** > 100 µM

**Q.** And the TGI [6]?
**A.** > 100 µM

**Q.** And the GI50 [7]?
**A.** 0.0113 µM

**Q.** What about the TGI [7] of the same molecule?
**A.** 0.0422 µM

**Q.** And the GI50 [8]?
**A.** > 100 µM

**Q.** What about the TGI [8] of the same molecule?
**A.** > 100 µM

**Q.** And the GI50 [9]?
**A.** > 100 µM

**Q.** What about the TGI [9] of the same molecule?
**A.** > 100 µM

**Q.** What about the GI50 [10] of the same molecule?
**A.** > 100 µM

**Q.** What about the TGI [10] of the same molecule?
**A.** > 100 µM

**Q.** What about the GI50 [11] of the same molecule?
**A.** > 100 µM

**Q.** What about the TGI [11] of the same molecule?
**A.** > 100 µM

**Q.** And the GI50 [12]?
**A.** > 100 µM

**Q.** And the TGI [12]?
**A.** > 100 µM

**Q.** And the GI50 [13]?
**A.** > 100 µM

**Q.** And the TGI [13]?
**A.** > 100 µM

**Q.** What about the GI50 [14] of the same molecule?
**A.** > 100 µM

**Q.** And the TGI [14]?
**A.** > 100 µM

**Q.** What about the GI50 [15] of the same molecule?
**A.** > 100 µM

**Q.** And the TGI [15]?
**A.** > 100 µM

**Q.** What about the GI50 [16] of the same molecule?
**A.** > 100 µM

**Q.** What about the TGI [16] of the same molecule?
**A.** > 100 µM

**Q.** What about the GI50 [17] of the same molecule?
**A.** > 100 µM

**Q.** What about the TGI [17] of the same molecule?
**A.** > 100 µM

**Q.** And the GI50 [18]?
**A.** > 100 µM

**Q.** And the TGI [18]?
**A.** > 100 µM

**Q.** And the GI50 [19]?
**A.** > 100 µM

**Q.** And the TGI [19]?
**A.** > 100 µM

**Q.** And the GI50 [20]?
**A.** > 100 µM

**Q.** What about the TGI [20] of the same molecule?
**A.** > 100 µM

**Q.** What about the GI50 [21] of the same molecule?
**A.** > 100 µM

**Q.** And the TGI [21]?
**A.** > 100 µM

**Q.** And the GI50 [22]?
**A.** > 100 µM

**Q.** And the TGI [22]?
**A.** > 100 µM

**Q.** What about the GI50 [23] of the same molecule?
**A.** > 100 µM

**Q.** And the TGI [23]?
**A.** > 100 µM

**Q.** And the GI50 [24]?
**A.** > 100 µM

**Q.** And the TGI [24]?
**A.** > 100 µM

**Q.** And the GI50 [25]?
**A.** > 100 µM

**Q.** What about the TGI [25] of the same molecule?
**A.** > 100 µM

**Q.** And the GI50 [26]?
**A.** > 100 µM

**Q.** What about the TGI [26] of the same molecule?
**A.** > 100 µM

**Q.** And the GI50 [27]?
**A.** > 100 µM

**Q.** What about the TGI [27] of the same molecule?
**A.** > 100 µM

**Q.** And the GI50 [28]?
**A.** > 100 µM

**Q.** And the TGI [28]?
**A.** > 100 µM

**Q.** And the GI50 [29]?
**A.** > 100 µM

**Q.** And the TGI [29]?
**A.** > 100 µM

**Q.** And the GI50 [30]?
**A.** > 100 µM

**Q.** And the TGI [30]?
**A.** > 100 µM

**Q.** What about the GI50 [31] of the same molecule?
**A.** > 100 µM

**Q.** What about the TGI [31] of the same molecule?
**A.** > 100 µM

**Q.** What about the GI50 [32] of the same molecule?
**A.** > 100 µM

**Q.** What about the TGI [32] of the same molecule?
**A.** > 100 µM

**Q.** What about the GI50 [33] of the same molecule?
**A.** > 100 µM

**Q.** And the TGI [33]?
**A.** > 100 µM

**Q.** And the GI50 [34]?
**A.** > 100 µM

**Q.** And the TGI [34]?
**A.** > 100 µM

**Q.** And the GI50 [35]?
**A.** > 100 µM

**Q.** What about the TGI [35] of the same molecule?
**A.** > 100 µM

**Q.** And the GI50 [36]?
**A.** > 100 µM

**Q.** And the TGI [36]?
**A.** > 100 µM

**Q.** And the GI50 [37]?
**A.** > 100 µM

**Q.** And the TGI [37]?
**A.** > 100 µM

**Q.** And the GI50 [38]?
**A.** > 100 µM

**Q.** And the TGI [38]?
**A.** > 100 µM

**Q.** And the GI50 [39]?
**A.** > 100 µM

**Q.** What about the TGI [39] of the same molecule?
**A.** > 100 µM

**Q.** And the GI50 [40]?
**A.** > 100 µM

**Q.** And the TGI [40]?
**A.** > 100 µM

**Q.** What about the GI50 [41] of the same molecule?
**A.** > 100 µM

**Q.** What about the TGI [41] of the same molecule?
**A.** > 100 µM

**Q.** What about the GI50 [42] of the same molecule?
**A.** > 100 µM

**Q.** And the TGI [42]?
**A.** > 100 µM

**Q.** What about the GI50 [43] of the same molecule?
**A.** > 100 µM

**Q.** What about the TGI [43] of the same molecule?
**A.** > 100 µM

**Q.** What about the GI50 [44] of the same molecule?
**A.** > 100 µM

**Q.** And the TGI [44]?
**A.** > 100 µM

**Q.** And the GI50 [45]?
**A.** > 100 µM

**Q.** And the TGI [45]?
**A.** > 100 µM

**Q.** And the GI50 [46]?
**A.** > 100 µM

**Q.** What about the TGI [46] of the same molecule?
**A.** > 100 µM

**Q.** What about the GI50 [47] of the same molecule?
**A.** > 100 µM

**Q.** What about the TGI [47] of the same molecule?
**A.** > 100 µM

**Q.** And the GI50 [48]?
**A.** > 100 µM

**Q.** What about the TGI [48] of the same molecule?
**A.** > 100 µM

**Q.** What about the GI50 [49] of the same molecule?
**A.** > 100 µM

**Q.** What about the TGI [49] of the same molecule?
**A.** > 100 µM

**Q.** What about the GI50 [50] of the same molecule?
**A.** > 100 µM

**Q.** And the TGI [50]?
**A.** > 100 µM

**Q.** And the GI50 [51]?
**A.** > 100 µM

**Q.** And the TGI [51]?
**A.** > 100 µM

**Q.** What about the GI50 [52] of the same molecule?
**A.** > 100 µM

**Q.** And the TGI [52]?
**A.** > 100 µM

**Q.** What about the GI50 [53] of the same molecule?
**A.** > 100 µM

**Q.** And the TGI [53]?
**A.** > 100 µM

**Q.** What about the GI50 [54] of the same molecule?
**A.** > 100 µM

**Q.** And the TGI [54]?
**A.** > 100 µM

**Q.** What about the GI50 [55] of the same molecule?
**A.** > 100 µM

**Q.** And the TGI [55]?
**A.** > 100 µM

**Q.** And the GI50 [56]?
**A.** > 100 µM

**Q.** And the TGI [56]?
**A.** > 100 µM
